According to ChEMBL document CHEMBL1154597, “1,1'-Disubstituted ferrocenes as molecular hinges in mono- and bivalent dopamine receptor ligands” (J Med Chem, 2009):

Experiments:
D(1A) dopamine receptor = D(1A) dopamine receptor (Sus scrofa, UniProt P50130); test: Displacement of [3H]SCH23390 from dopamine D1 receptor in pig striatal membranes; format: cell membranes, Striatum, Membrane
D(2) dopamine receptor [1] = target: T1, D(2) dopamine receptor (Homo sapiens, UniProt P14416); test: Displacement of [3H]spiperone from human cloned dopamine D2long receptor expressed in CHO cells; format: cell-based
D(2) dopamine receptor [2] = target: T1, D(2) dopamine receptor; test: Displacement of [3H]spiperone from human cloned dopamine D2short receptor expressed in CHO cells; format: cell-based
D(3) dopamine receptor = D(3) dopamine receptor (Homo sapiens, UniProt P35462); test: Displacement of [3H]spiperone from human cloned dopamine D3 receptor expressed in CHO cells; format: cell-based
D(4) dopamine receptor = target: T2, D(4) dopamine receptor (Homo sapiens, UniProt P21917); test: Displacement of [3H]spiperone from human cloned dopamine D4.4 receptor expressed in CHO cells; format: cell-based
T2 sequence (P21917 whole entry): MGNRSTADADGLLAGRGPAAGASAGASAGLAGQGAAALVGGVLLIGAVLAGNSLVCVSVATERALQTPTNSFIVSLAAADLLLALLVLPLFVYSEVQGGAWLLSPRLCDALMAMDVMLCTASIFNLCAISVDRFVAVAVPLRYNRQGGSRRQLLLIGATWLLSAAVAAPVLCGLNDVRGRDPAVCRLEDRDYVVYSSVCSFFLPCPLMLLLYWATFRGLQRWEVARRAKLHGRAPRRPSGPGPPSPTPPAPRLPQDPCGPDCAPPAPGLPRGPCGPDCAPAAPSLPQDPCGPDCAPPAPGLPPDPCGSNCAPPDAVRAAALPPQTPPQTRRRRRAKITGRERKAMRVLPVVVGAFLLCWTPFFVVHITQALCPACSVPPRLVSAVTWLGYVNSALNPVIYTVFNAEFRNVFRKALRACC

[3] = Displacement of [3H]WAY100635 from 5HT1A receptor in pig striatal membranes; format: cell membranes, Sus scrofa, Striatum, Membrane
[4] = target: 5-hydroxytryptamine receptor 2A (Sus scrofa, UniProt P50129); test: Displacement of [3H]ketanserin from 5HT2 receptor in pig striatal membranes; format: cell membranes, Striatum, Membrane
[5] = Displacement of [3H]prazosin from adrenergic alpha1 receptor in pig striatal membranes; format: cell membranes, Sus scrofa, Striatum, Membrane

T1 sequence (P14416 whole entry): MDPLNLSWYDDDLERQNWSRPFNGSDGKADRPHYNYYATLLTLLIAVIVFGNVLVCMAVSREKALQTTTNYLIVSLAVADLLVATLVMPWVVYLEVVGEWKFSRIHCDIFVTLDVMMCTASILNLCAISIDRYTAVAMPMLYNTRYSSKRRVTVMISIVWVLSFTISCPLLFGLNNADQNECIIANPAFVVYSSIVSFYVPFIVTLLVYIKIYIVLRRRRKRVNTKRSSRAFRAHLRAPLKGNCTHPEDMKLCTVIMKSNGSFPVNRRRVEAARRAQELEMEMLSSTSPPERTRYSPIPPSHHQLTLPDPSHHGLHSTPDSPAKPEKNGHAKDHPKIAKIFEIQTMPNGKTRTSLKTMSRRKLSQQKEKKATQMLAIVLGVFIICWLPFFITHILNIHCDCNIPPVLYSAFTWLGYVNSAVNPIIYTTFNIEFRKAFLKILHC
Chain of D(3) dopamine receptor (P35462 whole entry): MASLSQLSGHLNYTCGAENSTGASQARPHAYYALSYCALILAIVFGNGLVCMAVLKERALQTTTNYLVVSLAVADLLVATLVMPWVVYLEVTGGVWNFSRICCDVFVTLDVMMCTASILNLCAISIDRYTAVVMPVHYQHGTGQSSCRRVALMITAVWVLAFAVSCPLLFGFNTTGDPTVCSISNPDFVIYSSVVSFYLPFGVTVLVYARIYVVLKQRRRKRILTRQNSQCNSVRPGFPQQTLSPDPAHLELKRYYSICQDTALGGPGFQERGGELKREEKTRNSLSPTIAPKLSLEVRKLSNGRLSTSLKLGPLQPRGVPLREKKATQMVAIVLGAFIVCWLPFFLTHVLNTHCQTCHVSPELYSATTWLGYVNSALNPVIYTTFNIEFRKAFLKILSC
Chain of D(1A) dopamine receptor (P50130 whole entry): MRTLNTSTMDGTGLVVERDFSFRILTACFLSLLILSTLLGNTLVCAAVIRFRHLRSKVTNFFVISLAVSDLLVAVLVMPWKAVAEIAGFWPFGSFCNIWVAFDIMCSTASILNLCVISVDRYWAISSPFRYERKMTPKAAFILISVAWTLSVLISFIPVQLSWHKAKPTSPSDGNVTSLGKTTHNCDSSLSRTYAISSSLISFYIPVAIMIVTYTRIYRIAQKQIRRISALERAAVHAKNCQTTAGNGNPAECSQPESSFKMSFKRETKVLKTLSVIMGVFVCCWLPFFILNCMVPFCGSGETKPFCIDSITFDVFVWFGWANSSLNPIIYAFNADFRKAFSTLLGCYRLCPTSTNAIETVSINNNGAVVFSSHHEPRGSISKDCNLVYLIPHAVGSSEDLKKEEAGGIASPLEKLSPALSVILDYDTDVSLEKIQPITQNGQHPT
Chain of 5-hydroxytryptamine receptor 2A (P50129 whole entry): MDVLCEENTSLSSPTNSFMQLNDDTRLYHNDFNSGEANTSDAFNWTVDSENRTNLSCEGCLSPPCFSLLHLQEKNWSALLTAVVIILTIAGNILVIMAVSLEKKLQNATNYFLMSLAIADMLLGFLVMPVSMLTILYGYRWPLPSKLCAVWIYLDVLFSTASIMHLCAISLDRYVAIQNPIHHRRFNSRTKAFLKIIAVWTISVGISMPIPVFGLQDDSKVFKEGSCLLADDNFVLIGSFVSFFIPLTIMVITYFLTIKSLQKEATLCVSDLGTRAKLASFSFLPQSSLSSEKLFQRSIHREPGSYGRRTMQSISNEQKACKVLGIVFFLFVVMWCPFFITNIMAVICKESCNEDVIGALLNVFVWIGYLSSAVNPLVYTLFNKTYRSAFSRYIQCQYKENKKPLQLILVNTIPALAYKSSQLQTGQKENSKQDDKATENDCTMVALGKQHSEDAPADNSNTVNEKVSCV

In the case of `COc1ccccc1N1CCN(CCCCNC(=O)c2ccc(-c3cn(Cc4ccc(-c5ccc(Cn6cc(-c7ccc(C(=O)NCCCCN8CCN(c9ccccc9OC)CC8)cc7)nn6)cc5)cc4)nn3)cc2)CC1`, the Ki (D(1A) dopamine receptor) is reported as 9.5 µM, the Ki (D(2) dopamine receptor [1]) is reported as 2 µM and the Ki (D(2) dopamine receptor [2]) is reported as 0.77 µM. It also gave a Ki (D(3) dopamine receptor) of 0.07 µM, a Ki (D(4) dopamine receptor) of 0.85 µM and a Ki [3] of 1.2 µM. For the same compound, the Ki [4] was 1.7 µM and the Ki [5] was 0.23 µM.

`COc1ccccc1N1CCN(CCCCNC(=O)c2cccc(-c3cn(Cc4ccc(-c5ccc(Cn6cc(-c7cccc(C(=O)NCCCCN8CCN(c9ccccc9OC)CC8)c7)nn6)cc5)cc4)nn3)c2)CC1` showed a Ki (D(1A) dopamine receptor) of 3.4 µM, a Ki (D(2) dopamine receptor [1]) of 15 µM and a Ki (D(2) dopamine receptor [2]) of 10 µM. The Ki (D(3) dopamine receptor) was 0.23 µM, the Ki (D(4) dopamine receptor) was 3.4 µM and the Ki [3] was 2.5 µM. The Ki [4] was 3.4 µM and the Ki [5] was 0.35 µM.
